Assay results from ChEMBL document CHEMBL4028815, “Novel phosphonate analogs of sulforaphane: Synthesis, in vitro and in vivo anticancer activity” (Eur J Med Chem, 2017).
Activity calls are given as the source filed them. No cut-off for these calls is given here.

How the values were obtained:
Mus musculus [1] = experiment: Toxicity in BALB/c mdb mouse implanted with mouse 4T1 cells assessed as serum ALT level at 100 umol/kg, ip administered five times weekly measured at 29 day post cell innoculum (reference value: 23.8 +/- 2.2 U/L); type: organism-based; conditions: in vivo, 696 h
Mus musculus [2] = experiment: Hepatotoxicity in BALB/c mdb mouse implanted with mouse 4T1 cells assessed as liver weight at 100 umol/kg, ip administered five times weekly measured at 29 day post cell innoculum (reference value: 1.2 +/- 0.13 g); type: toxicity, organism-based; conditions: in vivo, 696 h
LoVo [3] = experiment: Potency index, ratio of sulforaphane IC50 to compound IC50 for human LoVo cells; type: functional
[4] = Resistance index, ratio of IC50 for human LoVo/DX cells to IC50 for human LoVo cells; type: functional
LoVo [5] = experiment: Cell cycle arrest in human LoVo cells assessed as decrease in accumulation at G0/G1 phase at 15 uM after 24 hrs by propidium iodide staining based flow cytometric method; type: functional
LoVo [6] = experiment: Induction of apoptosis in human LoVo cells assessed as increase in early apoptotic cells at 15 uM after 24 hrs by APC-Annexin-V/propidium iodide staining based flow cytometric method relative to control; type: functional
Mus musculus [7] = experiment: Toxicity in BALB/c mdb mouse implanted with mouse 4T1 cells assessed as serum PLT level at 100 umol/kg, ip administered five times weekly measured at 29 day post cell innoculum (reference value: 972 +/- 157 10^3/uL); type: organism-based; conditions: in vivo, 696 h
4T1 = experiment: Anti-tumor activity against mouse 4T1 cells implanted in BALB/c mdb mouse assessed as lung metastasis at 100 umol/kg, ip administered five times weekly measured at 29 days post cell innoculum (reference value: 56 +/- 25); type: functional
Mus musculus [8] = experiment: Toxicity in BALB/c mdb mouse implanted with mouse 4T1 cells assessed as serum urea level at 100 umol/kg, ip administered five times weekly measured at 29 day post cell innoculum (reference value: 3.8 +/- […]); type: organism-based; conditions: in vivo, 696 h
Mus musculus [9] = experiment: Toxicity in BALB/c mdb mouse implanted with mouse 4T1 cells assessed as lung weight at 100 umol/kg, ip administered five times weekly measured at 29 day post cell innoculum (reference value: 0.2 +/- 0.018 g); type: organism-based; conditions: in vivo, 696 h

O=P(CCCCCCN=C=S)(Oc1ccccc1)Oc1ccccc1
Activity (Mus musculus [1]): 33.3 U/L | Activity (Mus musculus [2]): 1.32 g | Ratio IC50 (LoVo [3]): 10 | Ratio IC50 [4]: 4 | Activity (LoVo [5]): Active | Activity (LoVo [6]): inactive | Activity (Mus musculus [7]): 855 ×10³ /uL | Activity (4T1): 46 | Activity (Mus musculus [8]): 4.9 mmol/L | Activity (Mus musculus [9]): 0.294 g
